Source: ChEMBL document CHEMBL1201862, “PubChem BioAssay data set” (2004)
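Grown in 96-well plates, cells were treated for 48 hours with each compound at five concentrations. Insufficient inhibition: endpoint recorded as highest concentration tested. GI50 is the concentration that inhibits growth by half.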 Active and inactive are the calls of the source. Cut-off read from the data, not from the text of the source: active = GI50 up to about 1.1 µM and inactive = higher.

How the values were obtained:
Assay in all cases: NCI-60 cell line screen, 48 h
[1] = system: LOX IMVI
[2] = system: SF-539
[3] = system: MDA-N
[4] = system: NCI/ADR-RES
[5] = system: T47D
[6] = system: CCRF-CEM
[7] = system: A549
[8] = system: UACC-62
[9] = system: U-251
[10] = system: MDA-MB-435
[11] = system: KM12
[12] = system: SF-295
[13] = system: MDA-MB-231
[14] = system: NCI-H460
[15] = system: HOP-92
[16] = system: HOP-62
[17] = system: PC-3
[18] = system: DU-145
[19] = system: OVCAR-3
[20] = system: NCI-H23

SMILES	GI50 [1]	GI50 [2]	GI50 [3]	GI50 [4]	GI50 [5]	GI50 [6]	GI50 [7]	GI50 [8]	GI50 [9]	GI50 [10]	GI50 [11]	GI50 [12]	GI50 [13]	GI50 [14]	GI50 [15]	GI50 [16]	GI50 [17]	GI50 [18]	GI50 [19]	GI50 [20]
COC1=CC(=O)N(C)C(O)C1(C#N)OC1OC(CO)C(O)C(O)C1O (stereo not given)	> 100 µM (inactive)	> 100 µM (inactive)	> 100 µM (inactive)	> 100 µM (inactive)	> 100 µM (inactive)	> 10 µM (inactive)	> 100 µM (inactive)	> 100 µM (inactive)	> 100 µM (inactive)	> 100 µM (inactive)	> 100 µM (inactive)	> 100 µM (inactive)	> 100 µM (inactive)	> 100 µM (inactive)	> 100 µM (inactive)	> 100 µM (inactive)	> 100 µM (inactive)	> 100 µM (inactive)	> 100 µM (inactive)	> 100 µM (inactive)
N#CCCN(C(=O)Nc1ccccc1)[C@H]1CCCC[C@@H]1N(C(=O)Nc1ccccc1)c1ccccc1	> 100 µM (inactive)	> 100 µM (inactive)	> 100 µM (inactive)	> 100 µM (inactive)	> 100 µM (inactive)	30.1 µM (inactive)	58.1 µM (inactive)	> 100 µM (inactive)	> 100 µM (inactive)	> 100 µM (inactive)	32.8 µM (inactive)	55.7 µM (inactive)	> 100 µM (inactive)	48.2 µM (inactive)	> 100 µM (inactive)	> 100 µM (inactive)	48.1 µM (inactive)	> 100 µM (inactive)	> 100 µM (inactive)	> 100 µM (inactive)
C/C(=C\c1csc(C)n1)[C@@H]1C[C@@H]2O[C@@H]2CCC[C@H](C)[C@H](O)[C@@H](C)C(=O)C(C)(C)[C@@H](O)CC(=O)O1.C/C(=C\c1csc(C)n1)[C@@H]1C[C@@H]2O[C@]2(C)CCC[C@H](C)[C@H](O)[C@@H](C)C(=O)C(C)(C)[C@@H](O)CC(=O)O1	0.00272 µM (active)	0.00511 µM (active)	0.000326 µM (active)	0.0191 µM (active)	0.0366 µM (active)	0.0478 µM (active)	0.0039 µM (active)	0.00767 µM (active)	0.0055 µM (active)	0.000973 µM (active)	0.00265 µM (active)	0.00567 µM (active)	0.00893 µM (active)	0.00129 µM (active)	0.0698 µM (active)	0.0258 µM (active)	0.00469 µM (active)	0.00604 µM (active)	0.00333 µM (active)	0.00664 µM (active)
CC(=O)NC1C(OCc2ccccc2)OC(CO)C(O)C1OCC(=O)NC(C(=O)NC(CCC(=O)NCCCCCC(=O)Nc1ccc2c(c1)CN1C(=O)c3ccccc3C1=N2)C(N)=O)C(C)C (stereo not given)	34.4 µM (inactive)	19.1 µM (inactive)	62.7 µM (inactive)	45.8 µM (inactive)	22.3 µM (inactive)	> 100 µM (inactive)	41.4 µM (inactive)	20.9 µM (inactive)	18.8 µM (inactive)	31.6 µM (inactive)	19.1 µM (inactive)	24.7 µM (inactive)	25.5 µM (inactive)	20.8 µM (inactive)	95.7 µM (inactive)	20.3 µM (inactive)	28.5 µM (inactive)	63.8 µM (inactive)	67.6 µM (inactive)	35.3 µM (inactive)
CC(=O)OC/C=C(/C=C/CNC1CCCCC1)OC(C)=O	19.1 µM (inactive)	11.6 µM (inactive)	18 µM (inactive)	19.6 µM (inactive)	7.26 µM (inactive)	4.34 µM (inactive)	47.8 µM (inactive)	19.1 µM (inactive)	17.8 µM (inactive)	16 µM (inactive)	15.5 µM (inactive)	18.1 µM (inactive)	14.3 µM (inactive)	24.1 µM (inactive)	12.5 µM (inactive)	16.5 µM (inactive)	17.3 µM (inactive)	17 µM (inactive)	17.4 µM (inactive)	16.3 µM (inactive)
C[N+]1(CCCCN2c3ccccc3Sc3cc(N=[N+]=[N-])ccc32)CCN(C(=O)CCNC(=O)Cc2ccc(C(=O)c3ccccc3)cc2)CC1	20.3 µM (inactive)	32.9 µM (inactive)	24.8 µM (inactive)	35.9 µM (inactive)	21.3 µM (inactive)	23.3 µM (inactive)	27.4 µM (inactive)	28.5 µM (inactive)	21.6 µM (inactive)	26.4 µM (inactive)	24.3 µM (inactive)	21.7 µM (inactive)	25.4 µM (inactive)	24.6 µM (inactive)	18.9 µM (inactive)	22.6 µM (inactive)	20.5 µM (inactive)	19.1 µM (inactive)	20.4 µM (inactive)	26.4 µM (inactive)
CC1=C(N2CC2)C(=O)C(C)=C(N2CC2)C1=O	0.112 µM (active)	0.134 µM (active)	0.0998 µM (active)	0.0221 µM (active)	0.208 µM (active)	0.0434 µM (active)	0.112 µM (active)	0.0579 µM (active)	0.152 µM (active)	0.288 µM (active)	0.279 µM (active)	0.127 µM (active)	4.01 µM (inactive)	< 0.0111 µM (active)	0.17 µM (active)	0.102 µM (active)	0.282 µM (active)	0.0469 µM (active)	0.249 µM (active)	0.0412 µM (active)
